Experimental data as given in patent publication US12351572B2, “Substituted 1,2,4-triazoles as TYK2 inhibitors” (Alumis Inc., priority 2018, dated 2025).

Experiments:
Assay type in all cases: in vivo
[1] = Pharmacokinetics in C57BL/6 mice; conditions: male, mouse, plasma, iv, C0, I.V. (2 mg/kg), read-out: C0 or Cmax
Protocol: (§1) The pharmacokinetics of test compounds were evaluated in male C57BL/6 mice, Sprague Dawley rats, Beagle dogs, and cynomolgus monkeys when administered via oral gavage and IV injection. The animals were fasted overnight before administration. Plasma samples were collected predose and at 0.5, 1, 3, 6, 9, 12, and 24 hours postdose. The samples were analyzed by LC/MS/MS and the concentration of test compound at each timepoint was determined by linear regression. Pharmacokinetic parameters were calculated from the plasma concentrations using Pheonix WinNonlin.

[2] = Pharmacokinetics in Sprague Dawley rats; conditions: rat, plasma, iv, C0, I.V. (1 mg/kg), read-out: C0 or Cmax
Protocol: as §1

[3] = Pharmacokinetics in Beagle dogs; conditions: dog, plasma, iv, C0, I.V. (1 mg/kg), read-out: C0 or Cmax
Protocol: as §1

[4] = Pharmacokinetics in cynomolgus monkeys; conditions: cynomolgus monkey, plasma, iv, C0, I.V. (1 mg/kg), read-out: C0 or Cmax
Protocol: as §1

Cmax [1]: 3220 ng/mL
Cmax [2]: 1740 ± 276 ng/mL
Cmax [3]: 559 ± 34 ng/mL
Cmax [4]: 1420 ± 264 ng/mL
Structure (SMILES): [2H]C([2H])([2H])NC(=O)c1nnc(NC(=O)C2CC2)cc1Nc1cccc(-c2ncn(C)n2)c1OC [control, BMS-986165]
